Test results taken from ChEMBL document CHEMBL1157865, “Synthesis and evaluation of SQ109 analogues as potential anti-tuberculosis candidates” (2010).
In brackets after ≈: the same amount, converted by molar mass.

tested on: Mycobacterium tuberculosis; test: Antimycobacterial activity against multidrug-resistant Mycobacterium tuberculosis XDR 173 by BACTEC 460 radiometric method; assay type: functional

Going from `CC(C)=CCC/C(C)=C/CC/C(C)=C/CNCCNC1C2CC3CC(C2)CC1C3` (centres undefined) to `CC(C)=CCC/C(C)=C/CNCCNC1C2CC3CC(C2)CC1C3` (centres undefined) [SQ109], the MIC rises from 0.25 µM (≈ 0.0997 µg/mL) to 0.5 µM (≈ 0.165 µg/mL) (2-fold).

Going from `CC(C)CCCC(C)CCCC(C)CCNCCNC1C2CC3CC(C2)CC1C3` (centres undefined) to `CC(C)CCCC(C)CCNCCNC12CC3CC(CC(C3)C1)C2` (centres undefined), the MIC falls from 1 µM (≈ 0.405 µg/mL) to 0.5 µM (≈ 0.167 µg/mL) (2-fold).
